# Results: patent US9012497B2, “Cyclohexyl carbamate compounds as active anti-cellulite ingredients” (Symrise AG, priority 2010, dated 2015)
# Tested on: 3T3-L1 cells
# Assay: Adipogenesis assay (in vitro), Nile Red lipid staining
# Assay type: cell-based
# Details: Mus musculus, mean values of at least 2 independent tests, read-out: Adipogenesis inhibition IC50
# Description: 3T3-L1 cells (mouse embryonic fibroblast-like adipocyte cell line) are seeded in a 48-well plate with collagen I-coating in a concentration of 3×10^4 cells/well. After 72 h cultivation at 37° C. and 5% CO2 in DMEM (Dulbecco's Modified Eagle Medium), enriched with 10% calf serum, various concentrations of the test substances in DMEM, enriched with 10% foetal calf serum and to which are added 1 μg/ml insulin, 0.25 μM dexamethasone and 0.5 mM IBMX (3-isobutyl-1-methylxanthine), are added and incubated for a further 48 h. A media change takes place, in that DMEM, enriched with 10% foetal calf serum and with 1 μg/ml insulin added, are applied. After renewed cultivation for 48 h, a further media change takes place, in which DMEM, enriched with 10% foetal calf serum, is applied.
# After a further incubation for 72 h, the intracellularly stored lipids are quantified as a measure for the differentiation of the cells by measuring the fluorescence after staining of the lipids with the fluorescent dye Nile Red.
# The inhibition of the adipogenesis in the presence of the test substances is calculated according to the following equation:
# [formula] wherein RFU test substance=relative fluorescent units of the wells with test substance and with cells RFU control=relative fluorescent units of the wells without test substance, but with cells RFU control without cells=relative fluorescent units of the wells without test substance and without cells The IC50 is calculated from the adipogenesis inhibition [%] in a series of dilutions of tested samples. This is the concentration at which the adipogenesis is 50% inhibited.
row,Compound,IC50
1,"CCCCNC(=O)OC1C(C)CCC(C)C1C (stereo not drawn) [BIO1617, Butyl-carbamic acid 2,3,6-trimethyl-cyclohexyl ester]",79 µM
2,"CCCCNC(=O)OC1CCCCC1C(C)C (stereo not drawn) [BIO1841, Butyl-carbamic acid 2-isopropyl-cyclohexyl ester]",59 µM
3,"CCC(C)NC(=O)OC1CCCC(C)C1C (stereo not drawn) [BIO1845, sec-Butyl-carbamic acid 2,3-dimethyl-cyclohexyl ester]",96 µM

# Tested on: 3T3 cells
# Assay: ATP assay, inhibition of proliferation
# Assay type: cell-based
# Details: Mus musculus, NIH3T3, 48 h, non-cytotoxic dilutions, mean values of at least 2 independent tests
# Description: 3T3 cells (mouse […] fibroblasts) were seeded in 96-well plates. After 24 h cultivation at 37° C. and 5% CO2 in DMEM (Dulbecco's Modified Eagle Medium), cells were treated with test substances for another 48 h. […] ATP content in the cells is measured by
# The inhibition of proliferation was calculated by:
# [formula] wherein RLU test substance=relative luminescent units of the wells with test substance and with cells RLU control=relative luminescent units of the wells without test substance, but with cells RLU control without cells=relative luminescent units of the wells without test substance and without cells
# The IC50 is calculated from the proliferation inhibition [%] in a series of non-cytotoxic dilutions of tested samples. This is the concentration at which the proliferation is 50% inhibited.
row,Compound,IC50
1,"CCCCNC(=O)OC1C(C)CCC(C)C1C (stereo not drawn) [BIO1617, Butyl-carbamic acid 2,3,6-trimethyl-cyclohexyl ester]",244 µM
2,"CCCCNC(=O)OC1CCCCC1C(C)C (stereo not drawn) [BIO1841, Butyl-carbamic acid 2-isopropyl-cyclohexyl ester]",255 µM
3,"CCC(C)NC(=O)OC1CCCC(C)C1C (stereo not drawn) [BIO1845, sec-Butyl-carbamic acid 2,3-dimethyl-cyclohexyl ester]",345 µM

# Tested on: 3T3-L1 cells
# Assay: Lipolysis assay, in vitro on 3T3-L1 cells, free glycerol release
# Assay type: cell-based
# Details: Mus musculus; differentiated 3T3-L1 cells, about 20 hours of incubation; mean values from at least 2 independent tests; read-out: Stimulation of lipolysis EC50
# Description: 3T3-L1 cells (mouse embryonic fibroblast-like adipocyte cell line) are seeded in a 48-well plate with collagen I-coating in a concentration of 3×10^4 cells/well. The cultivation and differentiation of the cells takes place analogously to the details in Example 2 (adipogenesis assay).
# Various concentrations of the test substances are applied to the cells in DMEM, with bovine serum albumen added. After about 20 hours of incubation, the quantification of free glycerol in the supernatant of the cells takes place, which is released by the cells after hydrolysis of triglycerides in the cells and is a measure of the lipolysis of the cells. The quantification of the free glycerol is carried out based on an enzymatic method with a free glycerol reagent.
# The stimulation of the lipolysis in the presence of test substances is calculated according to the following equation:
# [formula] wherein A test substance=absorption of the wells with test substance and with cells A test substance without cells=absorption of the wells with test substance without cells (absorption control) A control=absorption of the wells without test substance, but with cells A control without cells=absorption of the wells without test substance and without cells
# The EC50 is calculated from the lipolysis stimulation [%] in a series of dilutions of tested samples. This is the concentration at which the lipolysis is 50% stimulated.
row,Compound,EC50
1,"CCCCNC(=O)OC1C(C)CCC(C)C1C (stereo not drawn) [BIO1617, Butyl-carbamic acid 2,3,6-trimethyl-cyclohexyl ester]",980 µM
2,"CCCCNC(=O)OC1CCCCC1C(C)C (stereo not drawn) [BIO1841, Butyl-carbamic acid 2-isopropyl-cyclohexyl ester]",230 µM
3,"CCC(C)NC(=O)OC1CCCC(C)C1C (stereo not drawn) [BIO1845, sec-Butyl-carbamic acid 2,3-dimethyl-cyclohexyl ester]",190 µM
